Results from patent US7169407B1, “Carbonyl stress-decreasing agent” (Kiyoshi Kurokawa, priority 1999, dated 2007).

What was measured:
[1] = Carbonyl compound-trapping effect of biguanide agents in phosphate buffer (Example 1); details: 3 mM biguanide agent, 0.1 mM carbonyl compounds each, 0.1M phosphate buffer pH7.4, 37° C., over incubation period; HPLC
[2] = as above; details: 3 mM biguanide agent, 0.1 mM carbonyl compounds each, 0.1M phosphate buffer pH7.4, 37° C., over incubation period; HPLC; remark: listed apart in the source

SMILES | concentration of glyoxal [1] | concentration of methylglyoxal [2]
CCCCNC(=N)NC(=N)N [buformin, butyl biguanide] | markedly decreased | markedly decreased
N=C(N)NC(=N)NCCc1ccccc1 [phenformin, phenethyl biguanide] | markedly decreased | markedly decreased
